Reference: ChEMBL document CHEMBL4152362, “Discovery of DS-6930, a potent selective PPARγ modulator. Part II: Lead optimization” (Bioorg Med Chem, 2018)
In brackets after ≈: the same amount, converted by molar mass. Blank lines part the entries; values can stand above or below the molecule they belong to.

Tests used:
[1] = target: T1, Peroxisome proliferator-activated receptor alpha (Homo sapiens, UniProt Q07869); assay: Agonist activity at recombinant human GAL4-DBD fused PPARalpha LBD expressed in COS7 cells after 24 hrs by luciferase reporter gene assay; assay type: cell-based
T1 sequence (Q07869 whole entry): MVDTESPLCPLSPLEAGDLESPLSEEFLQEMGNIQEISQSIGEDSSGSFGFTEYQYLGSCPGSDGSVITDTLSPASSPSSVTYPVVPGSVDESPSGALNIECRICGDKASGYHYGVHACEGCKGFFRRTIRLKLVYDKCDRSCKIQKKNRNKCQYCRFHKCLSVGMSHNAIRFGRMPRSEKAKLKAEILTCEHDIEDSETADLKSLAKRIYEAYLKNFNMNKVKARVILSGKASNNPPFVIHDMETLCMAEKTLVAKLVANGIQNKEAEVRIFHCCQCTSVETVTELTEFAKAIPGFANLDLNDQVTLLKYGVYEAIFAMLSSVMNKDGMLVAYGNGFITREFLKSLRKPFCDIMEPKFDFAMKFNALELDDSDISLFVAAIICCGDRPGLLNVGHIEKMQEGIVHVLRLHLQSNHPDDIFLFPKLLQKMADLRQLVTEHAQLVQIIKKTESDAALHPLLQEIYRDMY

[2] = 1-octanol/PBS distribution co-efficient, log D of the compound at […] at pH 7.4 after 30 mins by HPLC-MS/MS method; assay type: physicochemical
[3] = Aqueous thermodynamic solubility of the compound in pH 6.8 solution up to 4 hrs by HPLC-UV analysis; assay type: physicochemical; conditions: read-out: Therm_solubility
[4] = Apparent permeability of the compound after 4 hrs by PAMPA; assay type: ADME
[5] = Metabolic stability in human liver microsomes after 0.5 hrs; assay type: ADME, microsome; conditions: read-out: Stability
[6] = Cmax in cynomolgus monkey at 3 mg/kg, po by LC-MS/MS; assay type: ADME, organism-based, Macaca fascicularis; design: dose 3 mg/kg, route oral; conditions: in vivo
[7] = Tmax in cynomolgus monkey at 3 mg/kg, po by LC-MS/MS; assay type: ADME, organism-based, Macaca fascicularis; conditions: in vivo
[8] = Half life in cynomolgus monkey at 3 mg/kg, po by LC-MS/MS; assay type: ADME, organism-based, Macaca fascicularis; conditions: in vivo
[9] = AUClast in cynomolgus monkey at 3 mg/kg, po by LC-MS/MS; assay type: ADME, organism-based, Macaca fascicularis; design: dose 3 mg/kg, time 0 - last, route oral; conditions: in vivo
[10] = Oral bioavailability in cynomolgus monkey at 3 mg/kg by LC-MS/MS; assay type: ADME, organism-based, Macaca fascicularis; conditions: in vivo
[11] = Clearance in cynomolgus monkey at 1 mg/kg, iv by LC-MS/MS; assay type: ADME, organism-based, Macaca fascicularis; conditions: in vivo
[12] = Volume of distribution at steady state in cynomolgus monkey at 1 mg/kg, iv by LC-MS/MS; assay type: ADME, organism-based, Macaca fascicularis; conditions: in vivo, read-out: Vdss
Hepatocyte [13] = assay: Cytotoxicity against F344/DuCrlCrlj rat primary hepatocytes assessed as reduction in mitochondrial enzyme activity at 10 to 100 uM after 24 hrs by WST8 assay; assay type: cell-based
Hepatocyte [14] = assay: Cytotoxicity against F344/DuCrlCrlj rat primary hepatocytes assessed as reduction in cell viability at 10 to 100 uM after 24 hrs by LDH release assay; assay type: cell-based
Hepatocyte [15] = assay: Cytotoxicity against F344/DuCrlCrlj rat primary hepatocytes assessed as reduction in cell viability at 100 uM after 24 hrs by LDH release assay; assay type: cell-based
[16] = Cmax in F344/DuCrlCrlj rat at 100 mg/kg, po via gavage measured on day 28 post dose; assay type: ADME, organism-based; design: dose 100 mg/kg, route oral; conditions: in vivo
[17] = Tmax in F344/DuCrlCrlj rat at 100 mg/kg, po via gavage measured on day 28 post dose; assay type: ADME, organism-based; conditions: in vivo
[18] = AUC (0 to 24 hrs) in F344/DuCrlCrlj rat at 100 mg/kg, po via gavage measured on day 28 post dose; assay type: ADME, organism-based; design: dose 100 mg/kg, time < 24 hr, route oral; conditions: in vivo
[19] = Cmax in F344/DuCrlCrlj rat at 300 mg/kg, po via gavage measured on day 28 post dose; assay type: ADME, organism-based; design: dose 300 mg/kg, route oral; conditions: in vivo
[20] = Tmax in F344/DuCrlCrlj rat at 300 mg/kg, po via gavage measured on day 28 post dose; assay type: ADME, organism-based; conditions: in vivo
[21] = AUC (0 to 24 hrs) in F344/DuCrlCrlj rat at 300 mg/kg, po via gavage measured on day 28 post dose; assay type: ADME, organism-based; design: time < 24 hr, dose 300 mg/kg, route oral; conditions: in vivo
[22] = Cmax in F344/DuCrlCrlj rat at 1000 mg/kg, po via gavage measured on day 28 post dose; assay type: ADME, organism-based; design: dose 1000 mg/kg, route oral; conditions: in vivo
[23] = Tmax in F344/DuCrlCrlj rat at 1000 mg/kg, po via gavage measured on day 28 post dose; assay type: ADME, organism-based; conditions: in vivo
[24] = AUC (0 to 24 hrs) in F344/DuCrlCrlj rat at 1000 mg/kg, po via gavage measured on day 28 post dose; assay type: ADME, organism-based; design: time < 24 hr, dose 1000 mg/kg, route oral; conditions: in vivo
[25] = Drug uptake in F344/DuCrlCrlj rat plasma administered via oral gavage measured on day 28 post dose; assay type: ADME

EC50 [1]: > 10 µM
logD at 0.5 h [2]: 1.1
solubility thermodynamic at 4 h [3]: 9.2 µg/mL (≈ 22.6 µM)
Papp at 4 h [4]: 5.8 ×10⁻⁶ cm/s
remaining at 0.5 h [5]: 100%
Cmax [6]: 0.1 µg/mL
Tmax [7]: 4 h
half-life [8]: 49.8 h
AUC(0-t) [9]: 1.47 µg·h/mL
bioavailability [10]: 8.9%
clearance [11]: 3.07 mL/min/kg
Vd [12]: 0.88 L/kg
SMILES: Cc1cnc(Oc2ccc3nc(COc4cccc(C(=O)O)c4)n(C)c3c2)c(F)c1
Activity (Hepatocyte [13]): Non-Toxic
Activity (Hepatocyte [14]): Non-Toxic
Activity (Hepatocyte [15]): Toxic

Cmax [16]: 92.8 µg/mL
Tmax [17]: 0.5 h
AUC at 24 h [18]: 399 µg·h/mL
Cmax [19]: 206 µg/mL
Tmax [20]: 0.5 h
AUC at 24 h [21]: 933 µg·h/mL
Cmax [22]: 273 µg/mL
Tmax [23]: 1 h
AUC at 24 h [24]: 1080 µg·h/mL
Drug uptake [25]: Dose-dependent effect
SMILES: Cc1cnc(Oc2ccc3nc(COc4cccc(C(=O)O)c4)n(C)c3c2)c(C)c1.Cl
